Legend:
Assay in all cases: relative viability (nuclei count vs DMSO), 5 days (fraction); higher = more cells survive
Trametinib + Tozasertib = compound: CC(=O)Nc1cccc(-n2c(=O)n(C3CC3)c(=O)c3c(Nc4ccc(I)cc4F)n(C)c(=O)c(C)c32)c1 [Trametinib] + Cc1cc(Nc2cc(N3CCN(C)CC3)nc(Sc3ccc(NC(=O)C4CC4)cc3)n2)n[nH]1 [Tozasertib] (partner 0.1 µM)
Method in brief: (§1)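 For relative viability, nuclei counts in treated wells were divided by those in vehicle wells. Lung cancer cell lines had been pin-tool dosed in 1536-well plates the day after seeding and cultured for 5 days, then fixed and stained in one step (final 0.05% Triton X-100, 1% formaldehyde, 1 ug/ml Hoechst) and imaged at 4×. Doses were one drug alone or a fixed anchor-drug dose plus five library-drug doses (not always all listed) in √10 steps, and values are duplicate-plate medians.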

Trametinib + AZD7762 = compound: CC(=O)Nc1cccc(-n2c(=O)n(C3CC3)c(=O)c3c(Nc4ccc(I)cc4F)n(C)c(=O)c(C)c32)c1 [Trametinib] + NC(=O)Nc1cc(-c2cccc(F)c2)sc1C(=O)N[C@H]1CCCNC1 [AZD7762] (partner 0.2 µM)
Method in brief: as §1

[1] = compound: CN1C=C(C2=CC=CC=C21)/C=C\3/C4=C(C=CC=N4)NC3=O + CC(C)C[C@H](NC(=O)[C@H](Cc1ccccc1)NC(=O)c1cnccn1)B(O)O [Bortezomib] (partner 0.002 µM)
Method in brief: as §1

[2] = compound: CN1C=C(C2=CC=CC=C21)/C=C\3/C4=C(C=CC=N4)NC3=O + CS(=O)(=O)CCNCc1ccc(-c2ccc3ncnc(Nc4ccc(OCc5cccc(F)c5)c(Cl)c4)c3c2)o1 [Lapatinib] (partner 2 µM)
Method in brief: as §1

| Cell Line | relative viability (Trametinib + Tozasertib; first compound 0.0025 µM) | relative viability (Trametinib + Tozasertib; first compound 0.007906 µM) | relative viability (Trametinib + Tozasertib; first compound 0.025 µM) | relative viability (Trametinib + Tozasertib; first compound 0.07906 µM) | relative viability (Trametinib + Tozasertib; first compound 0.25 µM) | relative viability (Trametinib + AZD7762; first compound 0.0025 µM) | relative viability (Trametinib + AZD7762; first compound 0.007906 µM) | relative viability (Trametinib + AZD7762; first compound 0.025 µM) | relative viability (Trametinib + AZD7762; first compound 0.07906 µM) | relative viability (Trametinib + AZD7762; first compound 0.25 µM) | relative viability ([1]; first compound 0.02 µM) | relative viability ([1]; first compound 0.06325 µM) | relative viability ([1]; first compound 0.2 µM) | relative viability ([1]; first compound 0.6325 µM) | relative viability ([1]; first compound 2 µM) | relative viability ([2]; first compound 0.02 µM) | relative viability ([2]; first compound 0.06325 µM) | relative viability ([2]; first compound 0.2 µM) | relative viability ([2]; first compound 0.6325 µM) | relative viability ([2]; first compound 2 µM) |
| --- | --- | --- | --- | --- | --- | --- | --- | --- | --- | --- | --- | --- | --- | --- | --- | --- | --- | --- | --- | --- |
| NCI-H1975 | 0.716 | 0.703 | 0.478 | 0.338 | 0.29 | 0.69 | 0.551 | 0.473 | 0.421 | 0.401 | 0.431 | 0.36 | 0.344 | 0.322 | 0.317 | 0.839 | 0.929 | 0.775 | 0.903 | 0.77 |
| IA-LM | – | – | – | – | – | – | – | – | – | – | 1 | 0.873 | 0.554 | 0.768 | 0.696 | 0.947 | 0.617 | 0.546 | 0.65 | 0.448 |
| NCI-H520 | 0.388 | 0.46 | 0.473 | 0.469 | 0.362 | – | – | – | – | – | 0.6 | 0.432 | 0.653 | 0.578 | 0.667 | 0.741 | 0.86 | 0.841 | 0.981 | 0.937 |
| NCI-H1395 | 0.797 | 0.73 | 0.721 | 0.718 | 0.548 | 0.399 | 0.377 | 0.41 | 0.361 | 0.367 | – | – | – | – | – | 0.878 | 1.01 | – | 0.948 | 0.885 |
| EBC-1 | – | – | – | – | – | – | – | – | – | – | 0.473 | 0.524 | 0.51 | 0.572 | 0.494 | 0.197 | 0.201 | 0.177 | 0.232 | 0.2 |
| NCI-H2009 | 0.689 | 0.489 | 0.378 | 0.302 | 0.244 | – | – | – | – | – | 1.01 | 0.963 | 0.963 | 1.07 | 1 | 0.996 | 0.965 | 1.02 | 0.947 | 0.898 |
| NCI-H358 | 0.112 | 0.107 | 0.0799 | 0.0885 | 0.0721 | 0.388 | 0.39 | 0.331 | 0.264 | 0.292 | – | – | – | – | – | 0.46 | 0.419 | 0.436 | 0.55 | 0.446 |
| ChaGo-K-1 | 0.232 | 0.223 | 0.214 | 0.201 | 0.191 | 0.909 | 0.859 | 0.793 | 0.781 | 0.807 | 0.902 | 0.94 | – | 0.987 | 0.979 | – | – | – | – | – |
| SK-LU-1 | 0.301 | 0.309 | 0.286 | 0.264 | 0.181 | – | – | – | – | – | 0.806 | 0.892 | 0.908 | 0.858 | 1.39 | 0.662 | 0.788 | 0.854 | 0.886 | 1.2 |
| NCI-H2228 | 0.239 | 0.209 | 0.207 | 0.211 | 0.132 | – | – | – | – | – | 0.882 | 0.834 | – | 0.887 | 1.19 | 1.24 | 0.88 | – | 1.02 | 0.972 |
| A549 | – | – | – | – | – | – | – | – | – | – | – | – | – | – | – | 1.08 | 0.873 | 0.91 | 0.932 | 1.05 |
| NCI-H1563 | – | – | – | – | – | – | – | – | – | – | 1.05 | 0.827 | 0.753 | 0.838 | 0.852 | 1.2 | 0.977 | 0.912 | 0.926 | 1.02 |
| NCI-H1703 | – | – | – | – | – | 0.141 | 0.126 | 0.144 | 0.101 | 0.112 | 0.407 | 0.401 | 0.258 | 0.41 | 0.356 | 0.962 | 0.941 | 1.11 | 1.25 | 1.29 |
| NCI-H1299 | – | – | – | – | – | – | – | – | – | – | 1.05 | 0.957 | 0.965 | 1.06 | 0.988 | 0.979 | 0.974 | 0.989 | 1.03 | 0.979 |
| NCI-H441 | 0.647 | 0.677 | 0.523 | 0.461 | 0.525 | 1.15 | 0.972 | 0.734 | 0.658 | 0.618 | 0.744 | – | 0.545 | 0.602 | 0.774 | – | – | – | – | – |
| NCI-H661 | 0.365 | 0.378 | 0.432 | 0.389 | 0.404 | – | – | – | – | – | 0.775 | 0.735 | 0.691 | 0.727 | 0.878 | 0.601 | 0.574 | 0.46 | 0.427 | 0.54 |
| NCI-H522 | 0.583 | 0.529 | 0.455 | 0.526 | 0.446 | 0.875 | 1.01 | 0.703 | 0.69 | 0.88 | – | – | – | – | – | – | – | – | – | – |
| NCI-H1648 | – | 0.611 | 0.515 | 0.4 | 0.352 | 0.69 | 0.716 | 0.879 | 0.78 | 0.441 | – | – | – | – | – | – | – | – | – | – |
| NCI-H1944 | 0.262 | 0.21 | 0.185 | 0.185 | 0.177 | 0.511 | 0.39 | 0.344 | 0.366 | 0.311 | – | – | – | – | – | 0.719 | 0.743 | – | 0.759 | 0.727 |
| COR-L23 | 0.193 | 0.208 | 0.165 | 0.178 | 0.149 | – | – | – | – | – | 1.01 | 0.953 | 1.19 | 0.866 | 1.04 | 0.973 | 0.92 | 1.16 | 0.923 | 1.12 |
| NCI-H2170 | 0.733 | 0.702 | 0.466 | 0.709 | 0.616 | 0.878 | 0.84 | – | 0.748 | 0.556 | – | – | – | – | – | – | 0.253 | 0.233 | 0.264 | 0.284 |
| NCI-H1793 | 0.281 | 0.226 | 0.253 | 0.164 | 0.205 | 0.44 | 0.466 | 0.252 | 0.335 | 0.264 | – | – | – | – | – | 0.912 | 0.787 | 0.646 | 0.448 | 0.799 |
| NCI-H1623 | 0.355 | 0.364 | 0.299 | 0.256 | 0.314 | – | – | – | – | – | – | – | – | – | – | – | – | – | – | – |
| COR-L 105 | 0.287 | 0.387 | 0.338 | 0.31 | 0.223 | – | – | – | – | – | 0.743 | 0.749 | 0.693 | 0.675 | 0.811 | 0.33 | 0.334 | 0.362 | 0.344 | 0.397 |

Reference: the supplement of paper PMC10307832
